# Patent US20130131079A1, “FLUFENOXINE DERIVATIVES FOR THE TREATMENT AND PREVENTION OF AMYLOID PATHOLOGIES” (FAES FARMA, S.A., priority 2010, published 2013)
# Structures can show the parent of a compound that is named as a salt. Where two headings read alike, the source gives them in different places.
# Tests used:
# tau phosphorylation = test: Ability to modify levels of tau phosphorylation in primary culture of cerebellar granule neurons and/or brain cortex (Western Blot, Tau 1, PHF1); assay type: cell-based, mice; conditions: CGN or brain cortex neurons
# Experimental: a)—Mouse cortex neurons: brains were obtained from 16-18-day old embryos. The two hemispheres, olfactory bulbs and brain stem were separated. The meninges were removed and the cut tissue was transferred to a 50 ml flask. 10 ml HBSS without Ca without Mg (without phenol red) were added. Two further washings with 3 ml HBSS were performed and digestion was performed with Trypsin-DNase at 37° C. The suspension was broken up by passing the material through glass pipettes with different thicknesses. The cells were cut and cultured in Dulbecco's Modified Eagle's medium (DMEM)+10% FCS. After 3 hours the final medium was placed in Neurobasal medium+B27 Supplement+KCl+glutamine+antibiotics.
# (§1) b) CGN: Cerebellar granule neurons derived from wild-type or transgenic mice were obtained from 6-day old mice. The basic process was similar to the previous one: obtaining and breaking up the tissue was similar and culturing and maintaining in final media was identical. The cerebellum was broken up by treatment with trypsin-EDTA for about 15-20 min and subsequently cultured in plates treated with Poly-L-Lysine (50 micrograms/m1). The neurons were maintained in a serum-free medium, Neurobasal medium+B27 Supplement+KCl+glutamine+antibiotics.
# Ability to Modify Levels of Tau Phosphorylation in Primary Culture of Cerebellar Granule Neurons (CGN) and/or Brain Cortex Derived from Mice (Wild Strain)
# The data was obtained in relation to the mean of 3 independent experiments of the relative level of tau-1 in soluble cell extracts obtained from cerebellar granule or brain cortex neurons treated with the indicated compounds. The ability to modify the level of tau phosphorylation in cortex neurons or cerebellar granule of […] was analyzed through Western Blot using specific antibodies in a series of fosfo-epitopes (Tau 1, PHF1) after 1, 2 and 3 incubation hours. Actine was used as reference (indicator of the total mass).
# [1] = tested on: primary cultures of CGN (cerebellar granule neurons); test: Toxicity and cell viability in primary cultures of CGN; assay type: cell-based, mice; conditions: 24 or 48 hours, Coomassie staining, absorbance at 595 nm
# Experimental: as §1
# The cell viability of different strains was studied in the presence of the compounds of the invention. […] In the toxicity assays, the cells (whether neurons or established lines) were seeded in 24-well plates and exposed to different concentrations of the drug in Dulbecco's Modified Eagle's medium (DMEM)+10% FCS or in the Neurobasal medium+B27 Supplement+KCl+glutamine+antibiotics when primary neurons were used. The treatments were stopped after 24 or 48 hours by fixing the cells with 4% paraformaldehyde for 30 minutes. The fixed cells were stained with 0.2% Coomassie Brilliant blue R-250 in 10% acetic acid/40% methanol for 1 hour at ambient temperature. […] Then it was acidified with 10% trichloroacetic acid and the number of cells was measured in an Elisa reader, with absorbance at 595 nm. […]
# cell line CHO-APP-PS1 = test: Toxicity and cell viability in cultures of cell line CHO-APP-PS1; assay type: cell-based, Chinese hamster
# Experimental: The cell viability of different strains was studied in the presence of the compounds of the invention. […] In the toxicity assays, the cells (whether neurons or established lines) were seeded in 24-well plates and exposed to different concentrations of the drug in Dulbecco's Modified Eagle's medium (DMEM)+10% FCS or in the Neurobasal medium+B27 Supplement+KCl+glutamine+antibiotics when primary neurons were used. The treatments were stopped after 24 or 48 hours by fixing the cells with 4% paraformaldehyde for 30 minutes. The fixed cells were stained with 0.2% Coomassie Brilliant blue R-250 in 10% acetic acid/40% methanol for 1 hour at ambient temperature. The stained cells were washed thoroughly with distilled water, and once dried the incorporated dye was extracted with 0.1 N NaOH in 50% methanol. Then it was acidified with 10% trichloroacetic acid and the number of cells was measured in an Elisa reader, with absorbance at 595 nm. DMSO (10 μl/well) was used as a control. […] The medium was collected for 6 hours, and then it was diluted 5 times and analyzed in duplicate using a Biosource ELISA kit (h 1-40 βAmyloid—Ref #KHB3482).
# [2] = at 5 and/or 10 micromolar, relative level of tau-1
# [3] = relative level of tau-1 in soluble cell extracts, mean of 3 experiments
compound,measurement,setting,value
Fc1ccccc1OC(c1ccccc1)C1CCNCC1 (stereo not drawn) [COMPOUND 21],ability to modify the level of tau phosphorylation,tau phosphorylation; [2],modify tau phosphorylation
Clc1ccc(OC(c2ccccc2)C2CCNCC2)cc1Cl (stereo not drawn) [COMPOUND 34],ability to modify the level of tau phosphorylation,tau phosphorylation; [2],modify tau phosphorylation
"Clc1ccc(/C=C(\c2ccccc2)C2CCNCC2)cc1 [COMPOUND 36, (Z)-4-[(1-phenyl)-2-(4-chlorophenyl)ethen-1-yl]piperidine]",ability to modify the level of tau phosphorylation,tau phosphorylation; [2],modify tau phosphorylation
"Fc1cc(COc2ccc3c(c2)OCO3)cc(OC(c2ccccc2)C2CCNCC2)c1 (racemic) [COMPOUND 32, hydrochloride]",ability to modify the level of tau phosphorylation,tau phosphorylation; [2],modify tau phosphorylation
"Clc1ccc(C(Oc2cccc3ccccc23)C2CCNCC2)cc1 (racemic) [COMPOUND 31, (+/−)-4-[(Naphthalen-1-oxy)(4-chlorophenyl)methyl]piperidine hemisulphate]",toxicity (cell viability),[1],somewhat toxic only at certain concentrations
same,ability to modify the level of tau phosphorylation,tau phosphorylation; [2],modify tau phosphorylation
c1ccc(-c2ccccc2OC(c2ccccc2)C2CCNCC2)cc1 (stereo not drawn) [COMPOUND 40],ability to modify the level of tau phosphorylation,tau phosphorylation; [2],modify tau phosphorylation
FC(F)(F)c1ccccc1OC(c1ccccc1)C1CCNCC1 (stereo not drawn) [COMPOUND 29],ability to modify the level of tau phosphorylation,tau phosphorylation; [2],modify tau phosphorylation
c1ccc(C(Oc2cccc3ccccc23)C2CCNCC2)cc1 (stereo not drawn) [COMPOUND 35],ability to modify the level of tau phosphorylation,tau phosphorylation; [2],modify tau phosphorylation
"NCCN1CCC(C(Oc2cccc(F)c2)c2ccccc2)CC1 (racemic) [COMPOUND 37, (+/−)-4-[(3-fluorophenoxy)phenylmetyl]piperidin-1-yl]ethylamine oxalate]",toxicity (cell viability),[1],somewhat toxic only at certain concentrations
same,ability to modify the level of tau phosphorylation,tau phosphorylation; [2],modify tau phosphorylation
FC(F)(F)c1ccc(OC(c2ccccc2)C2CCNCC2)cc1 (stereo not drawn) [COMPOUND 41],ability to modify the level of tau phosphorylation,tau phosphorylation; [2],modify tau phosphorylation
Fc1ccc(OC(CC2CCNCC2)c2ccc(F)cc2)cc1 (stereo not drawn) [COMPOUND 24],ability to modify the level of tau phosphorylation,tau phosphorylation; [2],modify tau phosphorylation
Fc1ccc(OC(CC2CCNCC2)c2ccccc2)cc1 (stereo not drawn) [COMPOUND 27],ability to modify the level of tau phosphorylation,tau phosphorylation; [2],modify tau phosphorylation
Ic1cccc(OC(c2ccccc2)C2CCNCC2)c1 (stereo not drawn) [COMPOUND 3],toxicity (cell viability),cell line CHO-APP-PS1,none of them giving rise to statistically relevant toxicity levels
same,ability to modify the level of tau phosphorylation,tau phosphorylation; [3],modify tau phosphorylation
Cc1ccc(Cl)cc1OC(c1ccccc1)C1CCNCC1 (stereo not drawn) [COMPOUND 10],toxicity (cell viability),"cell line CHO-APP-PS1; cultures of cell line CHO-APP-PS1, 24 or 48 hours, Coomassie staining, absorbance at 595 nm",none of them giving rise to statistically relevant toxicity levels
same,ability to modify the level of tau phosphorylation,tau phosphorylation; [3],modify tau phosphorylation
